Data published in patent US11643385B2, “Polymorphic forms of RAD1901-2HCl” (RADIUS PHARMACEUTICALS, INC., priority 2018, dated 2023).
Marks after values point to notes of the source that are not given here.

Test: Solubility assessment and polymorph screen on Sample 1 (Form 1) of RAD1901-2HCl in 24 solvent systems
Assay type: physicochemical
Conditions: for Solubility observation at 10 vol.: 25 mg Sample 1, 10 vol. solvent (solvent per sample ID), stirred 25° C., shaken 50° C.; for Solubility observation at 20 vol.: 20 vol. solvent (solvent per sample ID); for Solubility observation at 40 vol.: 40 vol. solvent (solvent per sample ID); for Solubility observation at 60 vol.: 60 vol. solvent (solvent per sample ID); for XRPD of recovered solid (form): solid recovered after maturation, cooling or evaporation; for Observation after Cooled to 5° C.: clear solutions cooled 50° C. to 5° C. at 0.1° C./min; for Observation after Evaporation: slow evaporation at ambient conditions
Protocol: Solubility assessment was carried out on the Sample 1 of RAD1901-2HCl (majorly Form 1 shown by XRPD) in 24 solvent systems in HPLC vials (sample IDs: A1 to A24). RAD1901-2HCl (25 mg) was treated with increasing volumes of solvent until the material fully dissolved or until a maximum of 60 vol had been used (Table 13).
After each addition of solvent, the system was stirred for 5 to 10 minutes at 25° C., then shaken at 50° C. for 5 to 10 minutes, and observations made. Samples were allowed to stand at room temperature for 5 min before the addition of a new aliquot of solvent. After the assessment was completed, the suspensions obtained were matured (maturation) and the clear solutions were cooled (cooling) and slowly evaporated (evaporation) as described below. All solids recovered from maturation, cooling and evaporation experiments were analyzed by high resolution XRPD.
The suspensions obtained during the solubility assessment were matured by shaken in a maturation chamber between 50° C. and RT (8 hr per cycle) for up to 5 days. Then the mixture was allowed to stand at room temperature for 10 minutes. The resulting solids were filtered and air dried and analyzed by XRPD. The clear solutions obtained during maturation were evaporated in ambient conditions and the resulting residues were analyzed by XRPD.
The clear solutions obtained during the course of the solubility assessment were cooled on a Polar Bear device from 50° C. to 5° C. at 0.1° C./min. Solids obtained upon cooling were recovered from the vials, air dried and analyzed by XRPD. If no solid was obtained, the solutions were evaporated slowly through a needle inserted into the septum cap of the vial until a solid appeared at ambient conditions and the resulting solids were filtered, air dried and analyzed by XRPD.

| Compound | Solubility observation at 10 vol. | Solubility observation at 20 vol. | Solubility observation at 40 vol. | Solubility observation at 60 vol. | XRPD of recovered solid (form) | Observation after Cooled to 5° C. | Observation after Evaporation |
| --- | --- | --- | --- | --- | --- | --- | --- |
| CCNCCc1ccc(CN(CC)c2cc(OC)ccc2[C@@H]2CCc3cc(O)ccc3C2)cc1.Cl.Cl [Form A1] | X (X = suspension) | X (X = suspension) | X (X = suspension) | X (X = suspension) | Form 1 |  |  |
| CCNCCc1ccc(CN(CC)c2cc(OC)ccc2[C@@H]2CCc3cc(O)ccc3C2)cc1.Cl.Cl [Form A2] | X (X = suspension) | X (X = suspension) | X (X = suspension) | X (X = suspension) | Form 1 |  |  |
| CCNCCc1ccc(CN(CC)c2cc(OC)ccc2[C@@H]2CCc3cc(O)ccc3C2)cc1.Cl.Cl [Form A3] | X (X = suspension) | X (X = suspension) | X (X = suspension) | X (X = suspension) | Form 1 |  |  |
| CCNCCc1ccc(CN(CC)c2cc(OC)ccc2[C@@H]2CCc3cc(O)ccc3C2)cc1.Cl.Cl [Form A4] | X (X = suspension) | X (X = suspension) | X (X = suspension) | X (X = suspension) | Form 1 |  |  |
| CCNCCc1ccc(CN(CC)c2cc(OC)ccc2[C@@H]2CCc3cc(O)ccc3C2)cc1.Cl.Cl [Form A5] | X (X = suspension) | X (X = suspension) | X (X = suspension) | X (X = suspension) | Form 1 |  |  |
| CCNCCc1ccc(CN(CC)c2cc(OC)ccc2[C@@H]2CCc3cc(O)ccc3C2)cc1.Cl.Cl [Form A6] | X (X = suspension) | X (X = suspension) | X (X = suspension) | X (X = suspension) | Form 3* |  |  |
| CCNCCc1ccc(CN(CC)c2cc(OC)ccc2[C@@H]2CCc3cc(O)ccc3C2)cc1.Cl.Cl [Form A7] | X (X = suspension) | X (X = suspension) | X (X = suspension) | X (X = suspension) | Form 1* |  |  |
| CCNCCc1ccc(CN(CC)c2cc(OC)ccc2[C@@H]2CCc3cc(O)ccc3C2)cc1.Cl.Cl [Form A8] | X (X = suspension) | X (X = suspension) | X (X = suspension) | X (X = suspension) | Form 1 |  |  |
| CCNCCc1ccc(CN(CC)c2cc(OC)ccc2[C@@H]2CCc3cc(O)ccc3C2)cc1.Cl.Cl [Form A10] | X (X = suspension) | X (X = suspension) | X (X = suspension) | X (X = suspension) | Form 1 |  |  |
| CCNCCc1ccc(CN(CC)c2cc(OC)ccc2[C@@H]2CCc3cc(O)ccc3C2)cc1.Cl.Cl [Form A11] | S (S = solution) |  |  |  |  | S | S |
| CCNCCc1ccc(CN(CC)c2cc(OC)ccc2[C@@H]2CCc3cc(O)ccc3C2)cc1.Cl.Cl [Form A12] | +/− (+/− = nearly dissolved) | S (S = solution) |  |  | Form 3 | S | Solid |
| CCNCCc1ccc(CN(CC)c2cc(OC)ccc2[C@@H]2CCc3cc(O)ccc3C2)cc1.Cl.Cl [Form A13] | X (X = suspension) | X (X = suspension) | X (X = suspension) | X (X = suspension) | Form 1 |  |  |
